Experimental data taken from PubChem BioAssay (NCI).
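Five compound concentrations were applied to cells in 96-well plates for 48 hours; endpoints were derived by simple linear interpolation of the resulting dose-response curve. The concentration for 50% growth inhibition is given as GI50. At the TGI there is no net growth.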

What was measured:
Assay in all cases: NCI-60 cell line screen, 48 h
ACHN renal = system: ACHN renal
BT-549 breast = system: BT-549 breast
IGROV1 ovarian = system: IGROV1 ovarian
OVCAR-4 ovarian = system: OVCAR-4 ovarian
SK-MEL-5 melanoma = system: SK-MEL-5 melanoma
SR leukemia = system: SR leukemia
HOP-92 NSCLC = system: HOP-92 NSCLC
SF-295 CNS = system: SF-295 CNS

Row | SMILES | GI50 (ACHN renal) | TGI (ACHN renal) | GI50 (BT-549 breast) | TGI (BT-549 breast) | GI50 (IGROV1 ovarian) | TGI (IGROV1 ovarian) | GI50 (OVCAR-4 ovarian) | TGI (OVCAR-4 ovarian) | GI50 (SK-MEL-5 melanoma) | TGI (SK-MEL-5 melanoma) | GI50 (SR leukemia) | TGI (SR leukemia) | GI50 (HOP-92 NSCLC) | TGI (HOP-92 NSCLC) | GI50 (SF-295 CNS) | TGI (SF-295 CNS)
1 | COc1cc(-c2cc(/C=C/C(=O)c3ccc(F)c(F)c3)[nH]n2)cc(OC)c1OC | 3.26 µM | > 100 µM | 4.1 µM | 19.3 µM | 3.62 µM | 87 µM | 2.2 µM | 71.7 µM | 2.27 µM | 6.41 µM | 2.92 µM | > 100 µM | – | – | – | –
2 | CCOC(=O)c1c(-c2ccccc2)[n+](=O)c2cc(Cl)c(Cl)cc2n1[O-] | 11.9 µM | 24.2 µM | 17.3 µM | 33.5 µM | 1.63 µM | > 100 µM | 2.48 µM | 6.62 µM | 14.8 µM | 28.8 µM | 0.529 µM | > 100 µM | 2.09 µM | 4.6 µM | 4.17 µM | 15.9 µM
3 | c1ccc(-c2oc(-c3ccccc3)c(CN3CCCCC3)c2CN2CCCCC2)cc1 | 2.54 µM | 10.2 µM | 3.35 µM | 13.3 µM | 1.73 µM | 14.4 µM | 2.65 µM | 13.6 µM | 1.59 µM | 3.08 µM | 2.52 µM | 6.06 µM | 1.48 µM | 5.89 µM | 2.05 µM | 6.58 µM
4 | Cn1cc(/C=C\[N+](=O)[O-])c2ccccc21 | > 100 µM | > 100 µM | 34.3 µM | 78.5 µM | 49.2 µM | > 100 µM | – | – | 14.8 µM | 31.6 µM | – | – | 30.6 µM | > 100 µM | 52.9 µM | > 100 µM
5 | COc1ccc(-c2cc(=O)c3c(O)c(OC)c(OC)c(OC)c3o2)cc1OC | – | > 100 µM | – | > 100 µM | – | > 100 µM | – | > 100 µM | – | > 100 µM | – | > 100 µM | – | 28 µM | – | > 100 µM
6 | CCOC(=O)CSc1cc(Cl)c(C)cc1S(=O)(=O)/N=C(/N=C/c1ccc([N+](=O)[O-])s1)NNC | 17 µM | 39.9 µM | 20.5 µM | 46.3 µM | 42.7 µM | > 100 µM | 20.7 µM | 62.4 µM | 15.2 µM | 29 µM | – | – | 13.2 µM | 54.6 µM | 16.1 µM | 47 µM
7 | Oc1ccc(Cl)cc1C(c1cc(Cl)ccc1O)C(Cl)(Cl)Cl | 1.76 µM | 4.11 µM | 1.82 µM | 4.71 µM | 1.63 µM | 5.67 µM | 2.71 µM | 10.7 µM | 1.58 µM | 3.05 µM | 1.5 µM | 5.34 µM | 2.28 µM | 5.44 µM | 1.97 µM | 4.76 µM
8 | Cc1cc(=O)oc2ccc(OC/C=C3\CCC(=O)O3)cc12 | 0.936 µM | 2.14 µM | 7.49 µM | 23.4 µM | 3.3 µM | 16.4 µM | 1.21 µM | 3.13 µM | 16.4 µM | 32.5 µM | – | – | 5 µM | 24.4 µM | 15.3 µM | 41.9 µM
9 | COc1ccc2nc3cc(Cl)ccc3c(NCCCNCCO)c2c1 | 0.403 µM | 3.25 µM | 1.89 µM | 3.71 µM | 0.577 µM | 3.18 µM | 0.484 µM | 2.87 µM | 1.55 µM | 2.93 µM | – | – | 1.2 µM | 3.45 µM | 0.523 µM | 2.32 µM
10 | C[C@@]1([C@H](OC(=O)c2ccccc2)C(N)=O)CO1 | 10.5 µM | 34.3 µM | 20.8 µM | 48.5 µM | 19.6 µM | > 100 µM | 37.6 µM | > 100 µM | 15.1 µM | 31.3 µM | – | – | 14.8 µM | 42.1 µM | 16.9 µM | 41.5 µM
11 | O=C1CC2OCC=C3CN4CCC56c7ccccc7N1C5C2C3CC46O (stereo not drawn) | – | > 100 µM | – | > 100 µM | – | > 100 µM | – | > 100 µM | – | > 100 µM | – | – | – | > 100 µM | – | > 100 µM
12 | COc1cc(/C=C/C(=O)c2cccc(-n3cc(-c4cc(OC)c(OC)c(OC)c4)[nH]c3=O)c2)cc(OC)c1OC | 1.74 µM | 3.3 µM | 1.52 µM | 3.43 µM | 1.6 µM | 3.79 µM | 3.77 µM | 55.6 µM | 2.76 µM | 9.57 µM | 0.386 µM | > 100 µM | – | – | 4.96 µM | 19.5 µM
13 | Oc1ccc(Br)cc1C=Nc1cccc(C(F)(F)F)c1 | – | > 100 µM | – | 98.3 µM | – | > 100 µM | – | > 100 µM | – | > 100 µM | – | – | – | > 100 µM | – | > 100 µM
14 | O=C(CS(=O)(=O)c1nc2ccccc2nc1-c1ccccc1)Nc1ccc(F)cc1 | > 100 µM | > 100 µM | 29.1 µM | > 100 µM | 74 µM | > 100 µM | 21.6 µM | 49.4 µM | 23.9 µM | 94.6 µM | – | – | 22.3 µM | > 100 µM | > 100 µM | > 100 µM
15 | NC(N)=N/N=C/c1c(-c2ccsc2)nc2n1CCS2 | 18.5 µM | 46 µM | 33.9 µM | 78.7 µM | 48.8 µM | > 100 µM | – | – | 20 µM | 41.4 µM | 12.1 µM | 28.8 µM | – | – | > 100 µM | > 100 µM
16 | COc1cccc2c1-c1nc(N)c3c(OC)cccc3c1C2=O | – | – | – | > 100 µM | – | > 100 µM | – | > 100 µM | – | > 100 µM | – | > 100 µM | – | > 100 µM | – | > 100 µM
17 | COc1cc([N+](=O)[O-])c(OC)cc1-c1nc2sc(C)c(C)n2c1/C(N)=N/C(=N)N | > 100 µM | > 100 µM | > 100 µM | > 100 µM | > 100 µM | > 100 µM | – | – | 8.14 µM | > 100 µM | – | – | 51.6 µM | > 100 µM | > 100 µM | > 100 µM
18 | CSc1ccc(C2=C(c3ccccc3)C(=O)OC2)cc1 | 0.517 µM | 33.4 µM | 16.2 µM | > 100 µM | 2.18 µM | > 63.9 µM | 21.2 µM | > 100 µM | 0.732 µM | 3.56 µM | – | – | 2.13 µM | 44.7 µM | 0.597 µM | 1.98 µM
